Oligonucleotides are given in HELM: sugar(base)linkage, 5' to 3'; d 2'-deoxyribose, r ribose, m 2'-O-methylribose, p phosphate. ss, as = sense and antisense strand
Further: test concentration or dose not given here.

This series concerns the target UBE2K. The experiment in a line: reporter assay of Huesken 2005. The note with it: siRNA.
“RNA1{r(G)p.r(U)p.r(A)p.r(G)p.r(U)p.r(A)p.r(G)p.r(C)p.r(A)p.r(A)p.r(A)p.r(U)p.r(C)p.r(A)p.r(G)p.r(U)p.r(A)p.r(C)p.r(A)p.d(T)p.d(T)}|RNA2{r(U)p.r(G)p.r(U)p.r(A)p.r(C)p.r(U)p.r(G)p.r(A)p.r(U)p.r(U)p.r(U)p.r(G)p.r(C)p.r(U)p.r(A)p.r(C)p.r(U)p.r(A)p.r(C)p.d(A)p.d(G)}$$$RNA1{StrandType:ss}|RNA2{StrandType:as}$” returned a normalised inhibition (eCFP-eYFP dual reporter) of 92.1%.

“RNA1{r(C)p.r(C)p.r(G)p.r(G)p.r(U)p.r(U)p.r(U)p.r(A)p.r(U)p.r(C)p.r(A)p.r(C)p.r(U)p.r(A)p.r(A)p.r(A)p.r(A)p.r(U)p.r(A)p.d(T)p.d(T)}|RNA2{r(U)p.r(A)p.r(U)p.r(U)p.r(U)p.r(U)p.r(A)p.r(G)p.r(U)p.r(G)p.r(A)p.r(U)p.r(A)p.r(A)p.r(A)p.r(C)p.r(C)p.r(G)p.r(G)p.d(A)p.d(C)}$$$RNA1{StrandType:ss}|RNA2{StrandType:as}$”: the normalised inhibition (eCFP-eYFP dual reporter) is 89.7%.

Substance “RNA1{r(A)p.r(A)p.r(G)p.r(U)p.r(A)p.r(G)p.r(A)p.r(U)p.r(C)p.r(U)p.r(U)p.r(G)p.r(U)p.r(A)p.r(G)p.r(A)p.r(U)p.r(G)p.r(A)p.d(T)p.d(T)}|RNA2{r(U)p.r(C)p.r(A)p.r(U)p.r(C)p.r(U)p.r(A)p.r(C)p.r(A)p.r(A)p.r(G)p.r(A)p.r(U)p.r(C)p.r(U)p.r(A)p.r(C)p.r(U)p.r(U)p.d(T)p.d(A)}$$$RNA1{StrandType:ss}|RNA2{StrandType:as}$” came in with a normalised inhibition (eCFP-eYFP dual reporter) of 88.9%.

For the substance “RNA1{r(U)p.r(G)p.r(A)p.r(A)p.r(A)p.r(G)p.r(A)p.r(U)p.r(C)p.r(A)p.r(A)p.r(U)p.r(G)p.r(G)p.r(G)p.r(C)p.r(A)p.r(G)p.r(C)p.d(T)p.d(T)}|RNA2{r(G)p.r(C)p.r(U)p.r(G)p.r(C)p.r(C)p.r(C)p.r(A)p.r(U)p.r(U)p.r(G)p.r(A)p.r(U)p.r(C)p.r(U)p.r(U)p.r(U)p.r(C)p.r(A)p.d(G)p.d(G)}$$$RNA1{StrandType:ss}|RNA2{StrandType:as}$”, the normalised inhibition (eCFP-eYFP dual reporter) came to 57.3%.

For “RNA1{r(U)p.r(A)p.r(C)p.r(A)p.r(A)p.r(A)p.r(C)p.r(A)p.r(A)p.r(A)p.r(A)p.r(U)p.r(C)p.r(C)p.r(C)p.r(G)p.r(A)p.r(A)p.r(A)p.d(T)p.d(T)}|RNA2{r(U)p.r(U)p.r(U)p.r(C)p.r(G)p.r(G)p.r(G)p.r(A)p.r(U)p.r(U)p.r(U)p.r(U)p.r(G)p.r(U)p.r(U)p.r(U)p.r(G)p.r(U)p.r(A)p.d(C)p.d(T)}$$$RNA1{StrandType:ss}|RNA2{StrandType:as}$”, the normalised inhibition (eCFP-eYFP dual reporter) came out at 66.1%.

Substance “RNA1{r(C)p.r(A)p.r(C)p.r(C)p.r(A)p.r(U)p.r(A)p.r(U)p.r(G)p.r(A)p.r(A)p.r(G)p.r(G)p.r(A)p.r(G)p.r(G)p.r(A)p.r(A)p.r(G)p.d(T)p.d(T)}|RNA2{r(C)p.r(U)p.r(U)p.r(C)p.r(C)p.r(U)p.r(C)p.r(C)p.r(U)p.r(U)p.r(C)p.r(A)p.r(U)p.r(A)p.r(U)p.r(G)p.r(G)p.r(U)p.r(G)p.d(T)p.d(G)}$$$RNA1{StrandType:ss}|RNA2{StrandType:as}$” came in with a normalised inhibition (eCFP-eYFP dual reporter) of 69.5%.

The substance “RNA1{r(G)p.r(A)p.r(G)p.r(G)p.r(A)p.r(A)p.r(G)p.r(A)p.r(U)p.r(A)p.r(C)p.r(C)p.r(A)p.r(A)p.r(C)p.r(U)p.r(A)p.r(G)p.r(A)p.d(T)p.d(T)}|RNA2{r(U)p.r(C)p.r(U)p.r(A)p.r(G)p.r(U)p.r(U)p.r(G)p.r(G)p.r(U)p.r(A)p.r(U)p.r(C)p.r(U)p.r(U)p.r(C)p.r(C)p.r(U)p.r(C)p.d(C)p.d(T)}$$$RNA1{StrandType:ss}|RNA2{StrandType:as}$” yielded a normalised inhibition (eCFP-eYFP dual reporter) of 79.3%.

In turn, “RNA1{r(A)p.r(A)p.r(G)p.r(G)p.r(A)p.r(G)p.r(G)p.r(A)p.r(A)p.r(G)p.r(A)p.r(U)p.r(A)p.r(C)p.r(C)p.r(A)p.r(A)p.r(C)p.r(U)p.d(T)p.d(T)}|RNA2{r(A)p.r(G)p.r(U)p.r(U)p.r(G)p.r(G)p.r(U)p.r(A)p.r(U)p.r(C)p.r(U)p.r(U)p.r(C)p.r(C)p.r(U)p.r(C)p.r(C)p.r(U)p.r(U)p.d(C)p.d(A)}$$$RNA1{StrandType:ss}|RNA2{StrandType:as}$” registered a normalised inhibition (eCFP-eYFP dual reporter) of 68.1%.

“RNA1{r(A)p.r(C)p.r(A)p.r(G)p.r(G)p.r(A)p.r(U)p.r(G)p.r(C)p.r(U)p.r(G)p.r(U)p.r(A)p.r(G)p.r(U)p.r(A)p.r(G)p.r(C)p.r(A)p.d(T)p.d(T)}|RNA2{r(U)p.r(G)p.r(C)p.r(U)p.r(A)p.r(C)p.r(U)p.r(A)p.r(C)p.r(A)p.r(G)p.r(C)p.r(A)p.r(U)p.r(C)p.r(C)p.r(U)p.r(G)p.r(U)p.d(G)p.d(G)}$$$RNA1{StrandType:ss}|RNA2{StrandType:as}$”: the normalised inhibition (eCFP-eYFP dual reporter) turned out to be 89.9%.

As to “RNA1{r(A)p.r(U)p.r(A)p.r(C)p.r(C)p.r(A)p.r(A)p.r(C)p.r(U)p.r(A)p.r(G)p.r(A)p.r(G)p.r(A)p.r(U)p.r(A)p.r(A)p.r(A)p.r(A)p.d(T)p.d(T)}|RNA2{r(U)p.r(U)p.r(U)p.r(U)p.r(A)p.r(U)p.r(C)p.r(U)p.r(C)p.r(U)p.r(A)p.r(G)p.r(U)p.r(U)p.r(G)p.r(G)p.r(U)p.r(A)p.r(U)p.d(C)p.d(T)}$$$RNA1{StrandType:ss}|RNA2{StrandType:as}$”, the normalised inhibition (eCFP-eYFP dual reporter) came out at 78.5%.

As to “RNA1{r(C)p.r(C)p.r(C)p.r(G)p.r(A)p.r(A)p.r(A)p.r(U)p.r(G)p.r(U)p.r(U)p.r(C)p.r(A)p.r(A)p.r(A)p.r(C)p.r(A)p.r(G)p.r(A)p.d(T)p.d(T)}|RNA2{r(U)p.r(C)p.r(U)p.r(G)p.r(U)p.r(U)p.r(U)p.r(G)p.r(A)p.r(A)p.r(C)p.r(A)p.r(U)p.r(U)p.r(U)p.r(C)p.r(G)p.r(G)p.r(G)p.d(A)p.d(T)}$$$RNA1{StrandType:ss}|RNA2{StrandType:as}$”, the normalised inhibition (eCFP-eYFP dual reporter) turned out to be 92.7%.

Substance “RNA1{r(U)p.r(G)p.r(U)p.r(U)p.r(U)p.r(G)p.r(G)p.r(A)p.r(U)p.r(A)p.r(U)p.r(C)p.r(C)p.r(U)p.r(G)p.r(A)p.r(A)p.r(A)p.r(G)p.d(T)p.d(T)}|RNA2{r(C)p.r(U)p.r(U)p.r(U)p.r(C)p.r(A)p.r(G)p.r(G)p.r(A)p.r(U)p.r(A)p.r(U)p.r(C)p.r(C)p.r(A)p.r(A)p.r(A)p.r(C)p.r(A)p.d(A)p.d(A)}$$$RNA1{StrandType:ss}|RNA2{StrandType:as}$” gave a normalised inhibition (eCFP-eYFP dual reporter) of 58.7%.

As for “RNA1{r(C)p.r(A)p.r(G)p.r(G)p.r(A)p.r(U)p.r(G)p.r(C)p.r(U)p.r(G)p.r(U)p.r(A)p.r(G)p.r(U)p.r(A)p.r(G)p.r(C)p.r(A)p.r(A)p.d(T)p.d(T)}|RNA2{r(U)p.r(U)p.r(G)p.r(C)p.r(U)p.r(A)p.r(C)p.r(U)p.r(A)p.r(C)p.r(A)p.r(G)p.r(C)p.r(A)p.r(U)p.r(C)p.r(C)p.r(U)p.r(G)p.d(T)p.d(G)}$$$RNA1{StrandType:ss}|RNA2{StrandType:as}$”, the normalised inhibition (eCFP-eYFP dual reporter) was 93%.

Substance “RNA1{r(A)p.r(G)p.r(A)p.r(U)p.r(G)p.r(A)p.r(U)p.r(C)p.r(C)p.r(A)p.r(C)p.r(A)p.r(G)p.r(G)p.r(A)p.r(U)p.r(G)p.r(C)p.r(U)p.d(T)p.d(T)}|RNA2{r(A)p.r(G)p.r(C)p.r(A)p.r(U)p.r(C)p.r(C)p.r(U)p.r(G)p.r(U)p.r(G)p.r(G)p.r(A)p.r(U)p.r(C)p.r(A)p.r(U)p.r(C)p.r(U)p.d(G)p.d(G)}$$$RNA1{StrandType:ss}|RNA2{StrandType:as}$” had a normalised inhibition (eCFP-eYFP dual reporter) of 68%.

With “RNA1{r(G)p.r(U)p.r(A)p.r(C)p.r(A)p.r(A)p.r(A)p.r(C)p.r(A)p.r(A)p.r(A)p.r(A)p.r(U)p.r(C)p.r(C)p.r(C)p.r(G)p.r(A)p.r(A)p.d(T)p.d(T)}|RNA2{r(U)p.r(U)p.r(C)p.r(G)p.r(G)p.r(G)p.r(A)p.r(U)p.r(U)p.r(U)p.r(U)p.r(G)p.r(U)p.r(U)p.r(U)p.r(G)p.r(U)p.r(A)p.r(C)p.d(T)p.d(G)}$$$RNA1{StrandType:ss}|RNA2{StrandType:as}$”, the normalised inhibition (eCFP-eYFP dual reporter) is 73.9%.

Substance “RNA1{r(G)p.r(C)p.r(U)p.r(G)p.r(C)p.r(A)p.r(A)p.r(U)p.r(G)p.r(A)p.r(C)p.r(U)p.r(C)p.r(U)p.r(C)p.r(C)p.r(G)p.r(C)p.r(A)p.d(T)p.d(T)}|RNA2{r(U)p.r(G)p.r(C)p.r(G)p.r(G)p.r(A)p.r(G)p.r(A)p.r(G)p.r(U)p.r(C)p.r(A)p.r(U)p.r(U)p.r(G)p.r(C)p.r(A)p.r(G)p.r(C)p.d(T)p.d(G)}$$$RNA1{StrandType:ss}|RNA2{StrandType:as}$” gave a normalised inhibition (eCFP-eYFP dual reporter) of 87.1%.

“RNA1{r(A)p.r(U)p.r(G)p.r(A)p.r(C)p.r(U)p.r(C)p.r(U)p.r(C)p.r(C)p.r(G)p.r(C)p.r(A)p.r(C)p.r(G)p.r(G)p.r(U)p.r(A)p.r(U)p.d(T)p.d(T)}|RNA2{r(A)p.r(U)p.r(A)p.r(C)p.r(C)p.r(G)p.r(U)p.r(G)p.r(C)p.r(G)p.r(G)p.r(A)p.r(G)p.r(A)p.r(G)p.r(U)p.r(C)p.r(A)p.r(U)p.d(T)p.d(G)}$$$RNA1{StrandType:ss}|RNA2{StrandType:as}$” came in with a normalised inhibition (eCFP-eYFP dual reporter) of 85.7%.

Substance “RNA1{r(G)p.r(A)p.r(U)p.r(C)p.r(C)p.r(A)p.r(C)p.r(A)p.r(G)p.r(G)p.r(A)p.r(U)p.r(G)p.r(C)p.r(U)p.r(G)p.r(U)p.r(A)p.r(G)p.d(T)p.d(T)}|RNA2{r(C)p.r(U)p.r(A)p.r(C)p.r(A)p.r(G)p.r(C)p.r(A)p.r(U)p.r(C)p.r(C)p.r(U)p.r(G)p.r(U)p.r(G)p.r(G)p.r(A)p.r(U)p.r(C)p.d(A)p.d(T)}$$$RNA1{StrandType:ss}|RNA2{StrandType:as}$” had a normalised inhibition (eCFP-eYFP dual reporter) of 67.6%.

Substance “RNA1{r(A)p.r(G)p.r(G)p.r(A)p.r(G)p.r(A)p.r(A)p.r(A)p.r(U)p.r(A)p.r(G)p.r(C)p.r(A)p.r(G)p.r(G)p.r(A)p.r(C)p.r(C)p.r(U)p.d(T)p.d(T)}|RNA2{r(A)p.r(G)p.r(G)p.r(U)p.r(C)p.r(C)p.r(U)p.r(G)p.r(C)p.r(U)p.r(A)p.r(U)p.r(U)p.r(U)p.r(C)p.r(U)p.r(C)p.r(C)p.r(U)p.d(C)p.d(T)}$$$RNA1{StrandType:ss}|RNA2{StrandType:as}$” displayed a normalised inhibition (eCFP-eYFP dual reporter) of 69.4%.

For the substance “RNA1{r(A)p.r(C)p.r(U)p.r(A)p.r(A)p.r(A)p.r(A)p.r(U)p.r(A)p.r(U)p.r(G)p.r(G)p.r(C)p.r(A)p.r(U)p.r(C)p.r(C)p.r(U)p.r(A)p.d(T)p.d(T)}|RNA2{r(U)p.r(A)p.r(G)p.r(G)p.r(A)p.r(U)p.r(G)p.r(C)p.r(C)p.r(A)p.r(U)p.r(A)p.r(U)p.r(U)p.r(U)p.r(U)p.r(A)p.r(G)p.r(U)p.d(G)p.d(A)}$$$RNA1{StrandType:ss}|RNA2{StrandType:as}$”, the normalised inhibition (eCFP-eYFP dual reporter) was determined as 76%.

The record behind these values is the OligoGym collection.
